Measurements published in patent US11168102B1, “Bicyclic heteroaryl compounds and uses thereof” (Revolution Medicines, Inc., priority 2019, dated 2021).

Columns and labels:
[1] = biological target: SOS1 catalytic domain (residues 564-1049) (Homo sapiens (Human), UniProt Q07889); test: Potency assay: binding affinity to SOS1 by Surface Plasmon Resonance (SPR); details: avi-tagged SOS1 catalytic domain immobilized on sensor chip; 1:1 equilibrium binding fit
[2] = biological target: SOS1 nucleotide exchange of wild-type KRAS (Homo sapiens (Human), UniProt Q07889); test: Mode of action assay: inhibition of SOS1 nucleotide exchange activity (TR-FRET); type: biochemical; details: SOS1 catalytic domain (564-1049), avi-tagged KRAS (1-169), EDA-GTP-DY-647P1; three replicates
Sequence of SOS1 nucleotide exchange of wild-type KRAS (Q07889 564-1049): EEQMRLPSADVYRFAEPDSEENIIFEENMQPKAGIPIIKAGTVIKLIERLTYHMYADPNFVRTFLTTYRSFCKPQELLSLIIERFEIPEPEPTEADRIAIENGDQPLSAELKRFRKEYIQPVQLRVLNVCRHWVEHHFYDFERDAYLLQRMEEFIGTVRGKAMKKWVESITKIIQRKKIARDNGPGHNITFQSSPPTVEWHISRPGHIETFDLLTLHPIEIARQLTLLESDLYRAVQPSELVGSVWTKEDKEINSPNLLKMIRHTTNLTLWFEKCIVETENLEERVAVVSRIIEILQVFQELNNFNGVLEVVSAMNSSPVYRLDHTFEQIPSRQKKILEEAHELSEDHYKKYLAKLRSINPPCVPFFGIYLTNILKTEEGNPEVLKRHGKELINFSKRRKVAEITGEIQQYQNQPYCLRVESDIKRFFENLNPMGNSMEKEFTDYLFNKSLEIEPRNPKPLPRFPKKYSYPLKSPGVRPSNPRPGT

[3] = tested on: cellular pERK in PC-9 cells (EGFR Ex19Del); test: Potency assay: pERK (AlphaLISA SureFire Ultra p-ERK1/2) in PC-9 cells; type: cell-based; details: Homo sapiens, PC-9, 1 h, PC-9 cells (EGFR Ex19Del), 1 hour incubation, AlphaLISA SureFire Ultra p-ERK1/2; read-out: SOS1 pERK IC50

Sequence of SOS1 catalytic domain (residues 564-1049) (Q07889 564-1049): as above

COc1ccc(-c2cc3c(N[C@H](C)c4cccc(C(F)F)c4F)ncnc3n(C)c2=O)cc1OC [Example 21-10] was tested, and the Kd [1] was 0.849 µM, the IC50 [2] was 0.532 µM and the IC50 [3] was 0.611 µM.

Cc1nc(N[C@H](C)c2cccc(C(F)F)c2F)c2cc(-c3cccnc3OCCO)c(=O)n(C)c2n1 [Example 21-11] was tested, and the Kd [1] was 0.234 µM, the IC50 [2] was 0.173 µM and the IC50 [3] was 0.452 µM.

Cc1nc(N[C@H](C)c2cccc(C(F)F)c2F)c2cc(-c3cccn(CCO)c3=O)c(=O)n(C)c2n1 [Example 21-12] was tested, and the Kd [1] was 0.216 µM, the IC50 [2] was 0.123 µM and the IC50 [3] was 0.588 µM.

In the case of Cc1nc(N[C@H](C)c2cccc(C(F)F)c2F)c2cc(C3=CCS(=N)(=O)CC3)c(=O)n(C)c2n1 (stereo partly drawn) [Example 23-1], the Kd [1] is reported as 0.0862 µM, the IC50 [2] is reported as 0.0783 µM and the IC50 [3] is reported as 0.076 µM.

C[C@@H](Nc1ncnc2c1cc(C(=O)N1CC(F)C1)c(=O)n2C)c1cccc(C(F)F)c1F [Example 26-1] gave a Kd [1] of 0.285 µM, an IC50 [2] of 0.162 µM and an IC50 [3] of 0.994 µM.

C[C@@H](Nc1ncnc2c1cc(C(=O)N1CCOCC1)c(=O)n2C)c1cccc(C(F)F)c1F [Example 26-2] gave a Kd [1] of 0.118 µM, an IC50 [2] of 0.102 µM and an IC50 [3] of 0.314 µM.

C[C@@H](Nc1ncnc2c1cc(C(=O)N1CC(C)(O)C1)c(=O)n2C)c1cccc(C(F)F)c1F [Example 26-3] was tested, and the Kd [1] was 0.404 µM, the IC50 [2] was 0.407 µM and the IC50 [3] was 0.659 µM.

C[C@@H](Nc1ncnc2c1cc(C(=O)N1CCN(C)CC1)c(=O)n2C)c1cccc(C(F)F)c1F [Example 26-7] gave a Kd [1] of 0.0775 µM, an IC50 [2] of 0.0508 µM and an IC50 [3] of 0.186 µM.

C[C@@H](Nc1ncnc2c1cc(C(=O)N1CCCOCC1)c(=O)n2C)c1cccc(C(F)F)c1F [Example 26-9] gave a Kd [1] of 0.178 µM, an IC50 [2] of 0.122 µM and an IC50 [3] of 0.479 µM.

C[C@@H](Nc1ncnc2c1cc(C(=O)N1C3CC1CN(C)C3)c(=O)n2C)c1cccc(C(F)F)c1F [Example 26-11] gave a Kd [1] of 0.0978 µM, an IC50 [2] of 0.0461 µM and an IC50 [3] of 0.251 µM.

C[C@@H](Nc1ncnc2c1cc(C(=O)N1C3CCC1COC3)c(=O)n2C)c1cccc(C(F)F)c1F [Example 26-12] showed a Kd [1] of 0.158 µM, an IC50 [2] of 0.107 µM and an IC50 [3] of 0.861 µM.

In the case of C[C@@H](Nc1ncnc2c1cc(C(=O)N(C)c1nccs1)c(=O)n2C)c1cccc(C(F)F)c1F [Example 26-20], the Kd [1] is reported as 1.47 µM, the IC50 [2] is reported as 0.331 µM and the IC50 [3] is reported as 1.75 µM.

Work on C[C@@H]1CN(C(=O)c2cc3c(N[C@H](C)c4cccc(C(F)F)c4F)ncnc3n(C)c2=O)C[C@@H](C)O1 [Example 26-21] yielded a Kd [1] of 0.114 µM, an IC50 [2] of 0.0249 µM and an IC50 [3] of 0.52 µM.

C[C@@H]1CN(C(=O)c2cc3c(N[C@H](C)c4cccc(C(F)F)c4F)ncnc3n(C)c2=O)C[C@H](C)O1 [Example 26-22] showed a Kd [1] of 0.474 µM, an IC50 [2] of 0.113 µM and an IC50 [3] of 2.61 µM.

Work on COC[C@H]1CCCN1C(=O)c1cc2c(N[C@H](C)c3cccc(C(F)F)c3F)ncnc2n(C)c1=O [Example 26-24] yielded a Kd [1] of 0.16 µM, an IC50 [2] of 0.0541 µM and an IC50 [3] of 0.794 µM.

C[C@@H]1COC[C@H](C)N1C(=O)c1cc2c(N[C@H](C)c3cccc(C(F)F)c3F)ncnc2n(C)c1=O [Example 26-25] gave a Kd [1] of 0.35 µM, an IC50 [2] of 0.106 µM and an IC50 [3] of 0.605 µM.

C[C@@H](Nc1ncnc2c1cc(C(=O)N1CCc3ncccc31)c(=O)n2C)c1cccc(C(F)F)c1F [Example 26-26] gave a Kd [1] of 0.269 µM, an IC50 [2] of 0.0722 µM and an IC50 [3] of 0.228 µM.

Compound C[C@@H](Nc1ncnc2c1cc(C(=O)N1CCc3ccncc31)c(=O)n2C)c1cccc(C(F)F)c1F [Example 26-29] has a Kd [1] of 0.136 µM, an IC50 [2] of 0.0978 µM and an IC50 [3] of 1.45 µM.

Work on C[C@@H](Nc1ncnc2c1cc(C(=O)N1CCn3cncc3C1)c(=O)n2C)c1cccc(C(F)F)c1F [Example 26-30] yielded a Kd [1] of 0.26 µM, an IC50 [2] of 0.0861 µM and an IC50 [3] of 0.656 µM.

Work on C[C@@H](Nc1ncnc2c1cc(C(=O)N1CCn3ccnc3C1)c(=O)n2C)c1cccc(C(F)F)c1F [Example 26-31] yielded a Kd [1] of 0.322 µM, an IC50 [2] of 0.23 µM and an IC50 [3] of 2.82 µM.

For C[C@@H](Nc1ncnc2c1cc(C(=O)N1CCS(=O)(=O)CC1)c(=O)n2C)c1cccc(C(F)F)c1F [Example 26-38], the Kd [1] was 0.235 µM, the IC50 [2] was 0.156 µM and the IC50 [3] was 0.392 µM.

With C[C@@H](Nc1ncnc2c1cc(C(=O)N1CC(O)(C(F)(F)F)C1)c(=O)n2C)c1cccc(C(F)F)c1F [Example 26-41] the Kd [1] was 0.42 µM, the IC50 [2] was 0.17 µM and the IC50 [3] was 1.4 µM.

C[C@@H](Nc1ncnc2c1cc(C(=O)N1CCN(C3COC3)CC1)c(=O)n2C)c1cccc(C(F)F)c1F [Example 26-43] was tested, and the Kd [1] was 0.0536 µM, the IC50 [2] was 0.037 µM and the IC50 [3] was 0.181 µM.

For C[C@@H](Nc1ncnc2c1cc(C(=O)N1CCN(C)c3ncccc31)c(=O)n2C)c1cccc(C(F)F)c1F [Example 26-49], the Kd [1] was 0.311 µM, the IC50 [2] was 0.176 µM and the IC50 [3] was 0.959 µM.

C[C@@H](Nc1ncnc2c1cc(C1(O)CCS(=O)(=O)C1)c(=O)n2C)c1cccc(C(F)F)c1F (stereo partly drawn) [Example 28-3] was tested, and the Kd [1] was 0.128 µM, the IC50 [2] was 0.0998 µM and the IC50 [3] was 0.111 µM.

C[C@@H](Nc1ncnc2c1cc(C1(O)CCC3(CC1)CS(=O)(=O)C3)c(=O)n2C)c1cccc(C(F)F)c1F [Example 28-6] gave a Kd [1] of 0.021 µM, an IC50 [2] of 0.014 µM and an IC50 [3] of 0.123 µM.

C[C@@H](Nc1ncnc2c1cc(C1(F)CCN(C)CC1)c(=O)n2C)c1cccc(C(F)F)c1F [Example 29-3] gave a Kd [1] of 0.0416 µM, an IC50 [2] of 0.0424 µM and an IC50 [3] of 0.12 µM.

For Cc1nc(N[C@H](C)c2cccc(C(F)F)c2F)c2cc(C3(F)CCN(C)CC3)c(=O)n(C)c2n1 [Example 29-4], the Kd [1] was 0.0522 µM, the IC50 [2] was 0.0159 µM and the IC50 [3] was 0.144 µM.

CC(=O)N1CCC(F)(c2cc3c(N[C@H](C)c4cccc(C(F)F)c4F)ncnc3n(C)c2=O)CC1 [Example 29-5] showed a Kd [1] of 0.0374 µM, an IC50 [2] of 0.0148 µM and an IC50 [3] of 0.0373 µM.

With C[C@@H](Nc1ncnc2c1cc(C1CCS(=O)(=O)C1)c(=O)n2C)c1cccc(C(F)F)c1F (stereo partly drawn) [Example 33-1] the Kd [1] was 0.486 µM, the IC50 [2] was 0.0427 µM and the IC50 [3] was 0.0621 µM.
